In patent US9498506B2, “Pharmaceutical composition for preventing or treating thyroid diseases, comprising extract from Lonicera caerulea L. var. edulis fruits as active ingredient” (H&K BIOSCIENCE CO., LTD., priority 2013, dated 2016):
Marks after values point to notes of the source that are not given here.

How the values were obtained:
Assay type in all cases: in vivo
[1] = system: PTU-induced hypothyroidism rat; test: Change in weight, PTU-induced hypothyroidism animal model; details: PTU-induced hypothyroidism rats
Method: (§1) Experimental animals are the same as described in Experimental Example 3.
(§2) Based on conventional methods known in the art (Neuro Endocrinol Lett. 1999; 20:311-14; Toxicol Sci. 2002; 69:79-91; Korean J Orient Physiol Pathol. 2010; 24:630-7), a hypothyroidism animal model was prepared by administering Propylthiouracil (PTU). Specifically, hypothyroidism was induced by dissolving 100 mg of PTU into 10 ml of saline solution and subcutaneously injecting the capacity of 1 ml/kg into dorsal neck of the animal model once everyday for a period of 28 days. On the other hand, in the intact control group, the same amount of saline solution instead of PTU was administered for the same period in the same manner as described above (FIG. 5).
(§3) Targeting the hypothyroidism animal prepared as above, 500, 250, and 125 mg/kg of the extract from Lonicera caerulea L. car. Edulis fruits (BH) prepared in Example 1-1 were dissolved in sterilized distilled water, respectively, and the capacity of 5 ml/kg was orally administered forcibly once a day for 42 consecutive days, 2 weeks prior to the PTU treatment. On the other hand, LF, an experimental group, was also dissolved in sterilized distilled water, and the capacity of 250 mg/kg was orally administered for the same period in the manner as described above.
(§4) 0.5 mg/kg of LT4 was dissolved in saline solution, and the capacity of 1 ml/kg was intraperitoneally administered once a day for 28 consecutive days since the PTU treatment day in the same manner as described above (Table 6, FIG. 5).
Next, the effects on treating hypothyroidism was confirmed by observing the weight change, thyroid weight change, content change in blood thyroid hormone (TSH, T3, and T4), and histopathological changes in the thyroid (the total thickness of thyroid in which the cells have been cut and average diameter of thyroid follicle) of the rats for each group. […]

[2] = system: PTU-induced hypothyroidism rat; test: Change in the thyroid weight, PTU-induced hypothyroidism animal model; details: PTU-induced hypothyroidism rats; 0.5 mg/kg intraperitoneally
Method: as §1, §2
(§5) Targeting the hypothyroidism animal prepared as above, 500, 250, and 125 mg/kg of the extract from Lonicera caerulea L. car. Edulis fruits (BH) prepared in Example 1-1 were dissolved in sterilized distilled water, respectively, and the capacity of 5 ml/kg was orally administered forcibly once a day for 42 consecutive days, 2 weeks prior to the PTU treatment. On the other hand, LF, an experimental group, was also dissolved in sterilized distilled water, and the capacity of 250 mg/kg was orally administered for the same period in the manner as described above. […]

[3] = system: PTU-induced hypothyroidism rat; test: Thyroid hormone content in blood, PTU-induced hypothyroidism animal model; details: PTU-induced hypothyroidism rats; 0.5 mg/kg intraperitoneally
Method: as §1, §2, §3, §4
Next, the effects on treating hypothyroidism was confirmed by observing the weight change, thyroid weight change, content change in blood thyroid hormone (TSH, T3, and T4), and histopathological changes in the thyroid (the total thickness of thyroid in which the cells have been cut and average diameter of thyroid follicle) of the rats for each group.

[4] = system: PTU-induced hypothyroidism rat; test: Histopathological observation of thyroid, PTU-induced hypothyroidism animal model; details: PTU-induced hypothyroidism rats; 0.5 mg/kg intraperitoneally
Method: as §1, §2, §5

[5] = system: PTU-induced hypothyroidism rat; test: Change in the weight of reproductive organs, PTU-induced hypothyroidism animal model; details: PTU-induced hypothyroidism rats; 0.5 mg/kg intraperitoneally
Method: as §1, §2, §3, §4

[6] = system: PTU-induced hypothyroidism rat; test: Content of sex hormones in serum, PTU-induced hypothyroidism animal model; details: PTU-induced hypothyroidism rats; LT4 0.5 mg/kg intraperitoneally
Method: as §1, §2, §3, §4

[7] = system: PTU-induced hypothyroidism rat; test: Testicular antioxidant defense system, PTU-induced hypothyroidism animal model; details: testis, PTU-induced hypothyroidism rats; 0.5 mg/kg intraperitoneally
Method: as §1, §2, §3, §4

[8] = system: PTU-induced hypothyroidism rat; test: Histopathological observation of reproductive organs, PTU-induced hypothyroidism animal model; details: PTU-induced hypothyroidism rats; 0.5 mg/kg intraperitoneally
Method: as §1, §2, §3, §4

[9] = system: LT4-induced hyperthyroidism rat; test: Change in weight, LT4-induced hyperthyroidism animal model; details: LT4-induced hyperthyroidism rats
Method: (§6) Total number of 150 male SPF. VAF Outbred-Rats, Crl:CD [Sprague-Dawley, SD] rats (6 weeks old, OrientBio, Seungnam, Korea) were prepared and refined for 8 days in a laboratory environment. After that, rats with consistent weight (average: 233.70 g±10.47 g, 217 g to 252 g) were selected, and 8 rats per group (total of 56 rats) were used for the experiment. In the present invention, all the experimental animals were treated according to animal ethics of the animal experimentation ethics committee of Daegu Haany University. The experiment was conducted after pre-approval.
(§7) Based on conventional methods known in the art (Clin Exp Pharmacol Physiol. 2007 November; 34(11):1217-9, etc.), a hyperthyroidism animal model was prepared by administering LT4 (levothyroxine). Specifically, hyperthyroidism was induced by dissolving 3 mg of LT4 into 10 ml of saline solution and subcutaneously injecting the capacity of 1 ml/kg into dorsal neck of the animal model once everyday for a period of 27 days. On the other hand, in the intact control group, the same amount of saline solution instead of LT4 was administered for the same period in the same manner as described above (FIG. 1).
(§8) Targeting the hyperthyroidism animal prepared as above, 500, 250, and 125 mg/kg of the extract from Lonicera caerulea L. car. Edulis fruits (BH) prepared in Example 1-1 were dissolved in sterilized distilled water, respectively, and the capacity of 5 ml/kg was orally administered forcibly once a day from Day 12 to Day 15 since the treatment.
On the other hand, Lonicerae Flos aqueous hot water extract (LF), an experimental group, was also dissolved in sterilized distilled water, and the capacity of 250 mg/kg was orally administered for the same period in the same manner as described above. 10 mg/kg of PTU was dissolved in saline solution, and the capacity of 1 ml/kg was intraperitoneally administered for the same period in the same manner as described above (Table 1, FIG. 1).
Next, the effects on treating hyperthyroidism was confirmed by observing the weight change, thyroid weight change, content change in blood thyroid hormone (TSH, T3, and T4), and histopathological change in the thyroid (the total thickness of thyroid in which the cells have been cut, average diameter of thyroid follicle, and thickness of thyroid epithelium) of the rats for each group.

[10] = system: LT4-induced hyperthyroidism rat; test: Change in the weight of thyroid, LT4-induced hyperthyroidism animal model; details: LT4-induced hyperthyroidism rats; 10 mg/kg intraperitoneally
Method: as §6
Based on conventional methods known in the art (Clin Exp Pharmacol Physiol. 2007 November; 34(11):1217-9, etc.), a hyperthyroidism animal model was prepared by administering LT4 (levothyroxine). […]
On the final day of sacrifice, left thyroids of all the experimental animals were extracted and isolated and next, the weight was measured and designated as the absolute weight. In order to minimize the secondary change accompanied with the change in weight, relative thyroid gland weight (Absolute […] weight/body weight at sacrifice ×100), which was the ratio of the absolute weight of the thyroid based on body weight, was calculated.

[11] = system: LT4-induced hyperthyroidism rat; test: Thyroid hormone content in blood (radioimmunoassay), LT4-induced hyperthyroidism animal model; details: LT4-induced hyperthyroidism rats; 10 mg/kg intraperitoneally
Method: as §6, §7, §8
On the other hand, Lonicerae Flos aqueous hot water extract (LF), an experimental group, was also dissolved in sterilized distilled water, and the capacity of 250 mg/kg was orally administered for the same period in the same manner as described above. […]
The TSH, T3, and T4 contents in blood were measured in the units including ng/ml or μg/ml by Gamma count Cobra II (Packard Co., IL, USA) utilizing Coat A count Total TSH, T3 or T4 kit (DPC, CA, USA), respectively, based on Radioimmunoassay method (Toxicol Sci 69(1): 79-91, 2002).

[12] = system: LT4-induced hyperthyroidism rat; test: Histopathological observation of thyroid, LT4-induced hyperthyroidism animal model; details: LT4-induced hyperthyroidism rats; 10 mg/kg intraperitoneally
Method: as §6, §7, §8
On the other hand, Lonicerae Flos aqueous hot water extract (LF), an experimental group, was also dissolved in sterilized distilled water, and the capacity of 250 mg/kg was orally administered for the same period in the same manner as described above. 10 mg/kg of PTU was dissolved in saline solution, and the capacity of 1 ml/kg was intraperitoneally administered for the same period in the same manner as described above (Table 1, FIG. 1). […]

Question: How did the “Body weight gains during 4 weeks of PTU treatment” value ([1]; 0.5 mg/kg intraperitoneally) turn out when `N[C@@H](Cc1cc(I)c(Oc2cc(I)c(O)c(I)c2)c(I)c1)C(=O)O` [LT4, Levothyroxine] was run?
Answer: 45.50 ± 14.55^fg

Question: And the “Body weight gains during 6 weeks of total experiments” value ([1]; 0.5 mg/kg intraperitoneally)?
Answer: 173.00 ± 16.75^ab

Question: And the “Body weight gains during 2 weeks of test material pretreatment” value ([1]; 0.5 mg/kg intraperitoneally group, period before LT4 and PTU dosing, in g (unit assumed))?
Answer: 127.50 ± 13.15

Question: And the “Absolute organ weights Thyroid gland” value [2]?
Answer: 0.012 ± 0.003^c g

Question: And the “Relative organ weights Thyroid gland” value [2]?
Answer: 0.003 ± 0.001^c % of body weights

Question: What about the “Serum thyroid hormone levels TSH” value [3] of the same compound?
Answer: 10.74 ± 1.62^bc ng/ml

Question: And the “Serum thyroid hormone levels Thyroxine” value [3]?
Answer: 6.75 ± 1.45^e μg/ml

Question: And the “Serum thyroid hormone levels Tri-iodothyronine” value [3]?
Answer: 19.24 ± 3.21^a ng/ml

Question: And the “Thyroid gland Mean follicular diameters” value [4]?
Answer: 102.24 ± 12.47^ac μm/follicle

Question: What about the “Thyroid gland Total thickness” value [4] of the same compound?
Answer: 1542.77 ± 137.07^bc μm/central regions

Question: And the “Absolute organ weights Epididymis” value [5]?
Answer: 0.342 ± 0.042^ac g

Question: What about the “Absolute organ weights Prostate” value [5] of the same compound?
Answer: 0.492 ± 0.042^ef g

Question: What about the “Absolute organ weights Testis” value [5] of the same compound?
Answer: 1.082 ± 0.045^eg

Question: What about the “Relative organ weights Epididymis” value [5] of the same compound?
Answer: 0.086 ± 0.012^gi % of body weights

Question: What about the “Relative organ weights Prostate” value [5] of the same compound?
Answer: 0.124 ± 0.013^gf % of body weights

Question: What about the “Relative organ weights Testis” value [5] of the same compound?
Answer: 0.273 ± 0.021^ac % of body weights

Question: And the “Serum male reproductive hormone levels DHT” value [6]?
Answer: 98.00 ± 13.43^ab pg/ml

Question: And the “Serum male reproductive hormone levels FSH” value [6]?
Answer: 21.01 ± 1.65^ab ng/ml

Question: What about the “Serum male reproductive hormone levels Testosterone” value [6] of the same compound?
Answer: 1.45 ± 0.18^fi ng/ml

Question: What about the “Antioxidant defense system Catalase” value [7] of the same compound?
Answer: 8.63 ± 2.13^eg U/mg protein

Question: What about the “Antioxidant defense system H2O2” value [7] of the same compound?
Answer: 80.63 ± 16.27^ab nM/mg protein

Question: And the “Antioxidant defense system SOD” value [7]?
Answer: 8.50 ± 2.00^eg U/mg protein

Question: What about the “Lipid peroxidation Malondialdehyde” value [7] of the same compound?
Answer: 5.54 ± 0.91 nM/mg protein

Question: And the “Epididymis A/O tubule percentages” value [8]?
Answer: 56.00 ± 7.52^df %/mm^2

Question: What about the “Epididymis Mean tubular diameters” value [8] of the same compound?
Answer: 217.98 ± 14.97^df μm/tubules of head

Question: And the “Prostate Atrophic tubule percentage” value [8]?
Answer: 73.50 ± 10.80^ab %/mm^2

Question: What about the “Prostate Mean tubular epithelial thickness” value [8] of the same compound?
Answer: 11.82 ± 2.76^df μm/tubules

Question: What about the “Testis Mean semniferous tubule diameters” value [8] of the same compound?
Answer: 195.00 ± 13.29^df μm/tubules

Question: And the “Testis Stage I~II semniferous tubule percentages” value [8]?
Answer: 15.63 ± 2.39^df %/mm^2

Question: For `CCCc1cc(=O)[nH]c(=S)[nH]1` [PTU, 6-n-propyl-2-thiouracil], which “Body weight gains during 15 days of PTU and herbal extracts treatment” value ([9]; 10 mg/kg intraperitoneally) is on record?
Answer: 58.75 ± 15.04^ab

Question: What about the “Body weight gains during 27 days of total experiments” value ([9]; 10 mg/kg intraperitoneally) of the same compound?
Answer: 113.63 ± 24.49^ab

Question: And the “days after administration from which weight was considerably increased compared to LT4 control” value ([9]; 10 mg/kg intraperitoneally)?
Answer: 5 days

Question: What about the “Body weight gains during 12 days of LT4 pretreatment” value ([9]; 10 mg/kg intraperitoneally group, period before test substance dosing) of the same compound?
Answer: 54.50 ± 13.15^d

Question: And the “Absolute organ weights Thyroid gland” value [10]?
Answer: 8.88 ± 2.03^h mg

Question: What about the “Relative organ weights (% of BW) Thyroid gland” value [10] of the same compound?
Answer: 2.71 ± 0.64^c mg/g of BW

Question: And the “Serum thyroid hormone levels TSH” value [11]?
Answer: 1.37 ± 0.24^ac ng/ml

Question: And the “Serum thyroid hormone levels Thyroxine” value [11]?
Answer: 71.30 ± 23.13^bc μg/ml

Question: And the “Serum thyroid hormone levels Tri-iodothyronine” value [11]?
Answer: 0.80 ± 0.18^ac ng/ml

Question: What about the “Thyroid glands Mean follicular epithelium thickness” value [12] of the same compound?
Answer: 14.50 ± 2.84^gh μm/follicle

Question: What about the “Thyroid glands Mean follicular thickness” value [12] of the same compound?
Answer: 71.87 ± 12.05^c μm/follicle

Question: What about the “Thyroid glands Total thickness” value [12] of the same compound?
Answer: 1628.19 ± 174.84^ac μm/central region
